molecular target: T1, full-length ATR (Homo sapiens, UniProt Q13535); experiment: ATR Inhibition Assay (radioactive-phosphate incorporation); type: biochemical; conditions: Ki(app); 5 nM full-length ATR, 10 μM [γ-33P]ATP, 800 μM target peptide, 25° C.
T1 construct: Assays were carried out at 25° C. in the presence of 5 nM full-length ATR
Procedure: Compounds were screened for their ability to inhibit ATR kinase using a radioactive-phosphate incorporation assay. Assays were carried out in a mixture of 50 mM Tris/HCl (pH 7.5), 10 mM MgCl2 and 1 mM DTT. Final substrate concentrations were 10 μM [γ-33P]ATP (3mCi 33P ATP/mmol ATP, Perkin Elmer) and 800 μM target peptide (ASELPASQPQPFSAKKK).
Assays were carried out at 25° C. in the presence of 5 nM full-length ATR. An assay stock buffer solution was prepared containing all of the reagents listed above, with the exception of ATP and the test compound of interest. 13.5 μL of the stock solution was placed in a 96 well plate followed by addition of 2 μL of DMSO stock containing serial dilutions of the test compound (typically starting from a final concentration of 15 μM with 3-fold serial dilutions) in duplicate (final DMSO concentration 7%). The plate was pre-incubated for 10 minutes at 25° C. and the reaction initiated by addition of 15 μL [γ-33P]ATP (final concentration 10 μM).
The reaction was stopped after […] by the addition of 30 μL 0.1M phosphoric acid containing 2 mM ATP. A multiscreen phosphocellulose filter 96-well plate (Millipore, Cat no. MAPHN0B50) was pretreated with 100 μL 0.2M phosphoric acid prior to the addition of 45 μL of the stopped assay mixture. The plate was washed with 5×200 μL 0.2M phosphoric acid. After drying, 100 μL Optiphase ‘SuperMix’ liquid scintillation cocktail (Perkin Elmer) was added to the well prior to scintillation counting (1450 Microbeta Liquid Scintillation Counter, Wallac).
After removing mean background values for all of the data points, Ki(app) data were calculated from non-linear regression analysis of the initial rate data using the Prism software package (GraphPad Prism version 3.0cx for Macintosh, GraphPad Software, San Diego Calif., USA).

T1 sequence (Q13535 whole entry): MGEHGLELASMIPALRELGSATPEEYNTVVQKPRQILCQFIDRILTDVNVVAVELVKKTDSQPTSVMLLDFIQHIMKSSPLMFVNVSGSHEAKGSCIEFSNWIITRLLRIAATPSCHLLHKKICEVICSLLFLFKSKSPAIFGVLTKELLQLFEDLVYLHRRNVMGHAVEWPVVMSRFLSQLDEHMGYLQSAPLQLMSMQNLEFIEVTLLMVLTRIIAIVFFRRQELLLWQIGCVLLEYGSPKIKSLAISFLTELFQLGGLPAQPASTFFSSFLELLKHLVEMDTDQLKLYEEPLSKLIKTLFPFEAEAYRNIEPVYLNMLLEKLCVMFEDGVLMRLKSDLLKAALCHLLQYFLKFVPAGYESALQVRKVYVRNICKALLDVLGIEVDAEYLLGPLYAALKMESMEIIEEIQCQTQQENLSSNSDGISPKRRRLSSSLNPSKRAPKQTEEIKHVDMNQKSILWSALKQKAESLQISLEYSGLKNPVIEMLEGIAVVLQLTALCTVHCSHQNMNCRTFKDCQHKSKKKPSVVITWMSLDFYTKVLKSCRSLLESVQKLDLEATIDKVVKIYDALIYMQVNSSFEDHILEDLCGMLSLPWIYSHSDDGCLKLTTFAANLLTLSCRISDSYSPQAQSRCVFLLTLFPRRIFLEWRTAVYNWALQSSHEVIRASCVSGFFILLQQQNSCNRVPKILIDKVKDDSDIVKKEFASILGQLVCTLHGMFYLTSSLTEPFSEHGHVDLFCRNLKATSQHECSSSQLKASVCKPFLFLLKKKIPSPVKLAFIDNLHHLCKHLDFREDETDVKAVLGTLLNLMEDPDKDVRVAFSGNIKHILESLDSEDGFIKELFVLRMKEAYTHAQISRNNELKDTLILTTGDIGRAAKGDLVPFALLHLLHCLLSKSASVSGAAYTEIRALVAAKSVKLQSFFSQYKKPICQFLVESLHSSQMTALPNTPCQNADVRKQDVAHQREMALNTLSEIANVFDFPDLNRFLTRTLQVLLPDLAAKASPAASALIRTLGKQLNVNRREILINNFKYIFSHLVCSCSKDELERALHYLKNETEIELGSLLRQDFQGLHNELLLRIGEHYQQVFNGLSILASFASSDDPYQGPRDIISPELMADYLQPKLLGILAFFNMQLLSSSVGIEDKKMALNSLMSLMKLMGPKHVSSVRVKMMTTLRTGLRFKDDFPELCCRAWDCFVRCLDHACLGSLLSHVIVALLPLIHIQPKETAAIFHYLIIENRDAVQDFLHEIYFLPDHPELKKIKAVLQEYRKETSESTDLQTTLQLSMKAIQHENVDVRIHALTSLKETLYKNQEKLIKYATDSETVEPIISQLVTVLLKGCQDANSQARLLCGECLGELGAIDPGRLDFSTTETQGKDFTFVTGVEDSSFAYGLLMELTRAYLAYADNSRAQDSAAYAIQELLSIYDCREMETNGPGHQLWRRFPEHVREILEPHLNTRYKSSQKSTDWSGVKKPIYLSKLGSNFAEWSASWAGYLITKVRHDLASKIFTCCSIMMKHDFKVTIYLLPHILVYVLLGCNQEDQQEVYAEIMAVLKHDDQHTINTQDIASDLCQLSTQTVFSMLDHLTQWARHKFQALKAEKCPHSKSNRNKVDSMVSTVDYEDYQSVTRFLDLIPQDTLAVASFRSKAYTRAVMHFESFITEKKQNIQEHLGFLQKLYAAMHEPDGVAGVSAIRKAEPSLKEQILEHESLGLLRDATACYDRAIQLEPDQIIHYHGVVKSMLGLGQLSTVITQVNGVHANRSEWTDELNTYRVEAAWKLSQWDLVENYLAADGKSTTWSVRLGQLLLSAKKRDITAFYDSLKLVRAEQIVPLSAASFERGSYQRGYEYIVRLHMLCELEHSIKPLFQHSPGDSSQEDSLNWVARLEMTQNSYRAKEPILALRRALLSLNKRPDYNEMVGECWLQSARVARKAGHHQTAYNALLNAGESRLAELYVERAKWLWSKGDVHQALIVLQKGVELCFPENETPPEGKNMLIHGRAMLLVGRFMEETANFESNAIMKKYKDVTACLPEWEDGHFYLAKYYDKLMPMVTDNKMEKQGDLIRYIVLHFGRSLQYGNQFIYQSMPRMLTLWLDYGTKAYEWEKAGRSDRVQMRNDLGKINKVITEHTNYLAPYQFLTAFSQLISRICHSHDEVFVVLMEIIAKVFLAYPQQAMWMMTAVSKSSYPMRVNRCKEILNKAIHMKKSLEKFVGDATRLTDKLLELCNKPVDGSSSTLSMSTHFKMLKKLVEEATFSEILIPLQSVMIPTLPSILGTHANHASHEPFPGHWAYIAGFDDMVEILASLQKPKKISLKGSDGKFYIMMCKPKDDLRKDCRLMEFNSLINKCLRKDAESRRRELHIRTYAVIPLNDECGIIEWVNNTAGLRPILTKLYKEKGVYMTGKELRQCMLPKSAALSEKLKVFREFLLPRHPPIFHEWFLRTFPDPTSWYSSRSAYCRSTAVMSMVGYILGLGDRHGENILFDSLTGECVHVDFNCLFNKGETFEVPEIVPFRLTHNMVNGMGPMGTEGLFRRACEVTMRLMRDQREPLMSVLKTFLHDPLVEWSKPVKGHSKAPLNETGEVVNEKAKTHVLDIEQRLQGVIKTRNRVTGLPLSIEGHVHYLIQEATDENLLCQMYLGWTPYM

Ki | ATR Inhibition Ki | SMILES
≤ 0.01 µM |  | CC(C)S(=O)(=O)c1ccc(-c2cnc3[nH]cc(NC(=O)c4ccccc4)c3n2)cc1 [Compound I-1, N-(2-(4-(isopropylsulfonyl)phenyl)-5H-pyrrolo[2,3-b]pyrazin-7-yl)benzamide]
≤ 0.01 µM |  | CC(C)S(=O)(=O)c1ccc(-c2cnc3[nH]cc(NC(=O)c4cccc(N)c4)c3n2)cc1 [Compound I-2, 3-amino-N-[2-(4-isopropylsulfonylphenyl)-5H-pyrrolo[2,3-b]pyrazin-7-yl]benzamide]
0.01 to 0.1 µM |  | CC(C)S(=O)(=O)c1ccc(-c2cnc3[nH]cc(NC(=O)c4ccc(N)cc4)c3n2)cc1 [Compound I-3, 4-amino-N-[2-(4-isopropylsulfonylphenyl)-5H-pyrrolo[2,3-b]pyrazin-7-yl]benzamide]
≤ 0.01 µM |  | CNCc1ccc(C(=O)Nc2c[nH]c3ncc(-c4ccc(S(=O)(=O)C(C)C)cc4)nc23)cc1 [Compound I-4, N-[2-(4-isopropylsulfonylphenyl)-5H-pyrrolo[2,3-b]pyrazin-7-yl]-4-(methylaminomethyl)benzamide]
≤ 0.01 µM |  | CC(C)S(=O)(=O)c1ccc(-c2cnc3[nH]cc(NC(=O)c4ccc(CN[C@H]5CCOC5)cc4)c3n2)cc1 [Compound I-5, N-[2-(4-isopropylsulfonylphenyl)-5H-pyrrolo[2,3-b]pyrazin-7-yl]-4-[[[(3S)-tetrahydrofuran-3-yl]amino]methyl]benzamide]
≤ 0.01 µM |  | CNCc1cccc(C(=O)Nc2c[nH]c3ncc(-c4ccc(S(=O)(=O)C(C)C)cc4)nc23)c1 [Compound I-6, N-[2-(4-isopropylsulfonylphenyl)-5H-pyrrolo[2,3-b]pyrazin-7-yl]-3-(methylaminomethyl)benzamide]
0.1 to 0.5 µM |  | CC(C)S(=O)(=O)c1ccc(-c2cnc3[nH]cc(NC(=O)c4cccc(C(=O)O)c4)c3n2)cc1 [Compound I-7, 3-[[2-(4-isopropylsulfonylphenyl)-5H-pyrrolo[2,3-b]pyrazin-7-yl]carbamoyl]benzoic acid]
≤ 0.01 µM |  | CC(CCO)S(=O)(=O)c1ccc(-c2cnc3[nH]cc(NC(=O)c4ccccc4)c3n2)cc1 (stereo not drawn) [Compound I-8]
0.1 to 0.5 µM |  | CC(C)C(=O)Nc1c[nH]c2ncc(-c3ccc(S(=O)(=O)C(C)C)cc3)nc12 [Compound I-9, N-(2-(4-(isopropylsulfonyl)phenyl)-5H-pyrrolo[2,3-b]pyrazin-7-yl)isobutyramide]
0.1 to 0.5 µM |  | CC(C)S(=O)(=O)c1ccc(-c2cnc3[nH]cc(NC(=O)Cc4ccccc4)c3n2)cc1 [Compound I-10, N-[2-(4-isopropylsulfonylphenyl)-5H-pyrrolo[2,3-b]pyrazin-7-yl]-2-phenyl-acetamide]
 | none | COc1ccccc1C(=O)Nc1c[nH]c2ncc(-c3ccc(S(=O)(=O)C(C)C)cc3)nc12 [Compound I-11, N-[2-(4-isopropylsulfonylphenyl)-5H-pyrrolo[2,3-b]pyrazin-7-yl]-2-methoxy-benzamide]
0.01 to 0.1 µM |  | CC(C)S(=O)(=O)c1ccc(-c2cnc3[nH]cc(NC(=O)c4cccc(CN)c4)c3n2)cc1 [Compound I-12, 3-(aminomethyl)-N-[2-(4-isopropylsulfonylphenyl)-5H-pyrrolo[2,3-b]pyrazin-7-yl]benzamide]
0.01 to 0.1 µM |  | CC(C)S(=O)(=O)c1ccc(-c2cnc3[nH]cc(NC(=O)c4cccc(Cl)c4)c3n2)cc1 [Compound I-13]
≤ 0.01 µM |  | CC(C)S(=O)(=O)c1ccc(-c2cnc3[nH]cc(NC(=O)c4ccccc4O)c3n2)cc1 [Compound I-14, 2-hydroxy-N-(2-(4-(isopropylsulfonyl)phenyl)-5H-pyrrolo[2,3-b]pyrazin-7-yl)benzamide]
0.01 to 0.1 µM |  | CC(C)S(=O)(=O)c1ccc(-c2cnc3[nH]cc(NC(=O)c4ccccc4F)c3n2)cc1 [Compound I-15, 2-fluoro-N-[2-(4-isopropylsulfonylphenyl)-5H-pyrrolo[2,3-b]pyrazin-7-yl]benzamide]
0.01 to 0.1 µM |  | CC(C)S(=O)(=O)c1ccc(-c2cnc3[nH]cc(NC(=O)c4ccc(Cl)cc4)c3n2)cc1 [Compound I-16, 4-chloro-N-[2-(4-isopropylsulfonylphenyl)-5H-pyrrolo[2,3-b]pyrazin-7-yl]benzamide]
0.01 to 0.1 µM |  | CC(C)S(=O)(=O)c1ccc(-c2cnc3[nH]cc(NC(=O)c4ccncc4)c3n2)cc1 [Compound I-17, N-[2-(4-isopropylsulfonylphenyl)-5H-pyrrolo[2,3-b]pyrazin-7-yl]pyridine-4-carboxamide]

Ki | ATR Inhibition Ki | SMILES
≤ 0.01 µM |  | CC(C)S(=O)(=O)c1ccc(-c2cnc3[nH]cc(NC(=O)c4ccc(O)cc4)c3n2)cc1 [Compound I-18, 4-hydroxy-N-[2-(4-isopropylsulfonylphenyl)-5H-pyrrolo[2,3-b]pyrazin-7-yl]benzamide]
0.1 to 0.5 µM |  | CC(C)S(=O)(=O)c1ccc(-c2cnc3[nH]cc(NS(=O)(=O)c4ccccc4)c3n2)cc1 [Compound I-19]
0.01 to 0.1 µM |  | CC(C)S(=O)(=O)c1ccc(-c2cnc3[nH]cc(NC(=O)c4ccc(N5CCC(N)CC5)cc4)c3n2)cc1 [Compound I-20, 4-(4-amino-1-piperidyl)-N-[2-(4-isopropylsulfonylphenyl)-5H-pyrrolo[2,3-b]pyrazin-7-yl]benzamide]
0.01 to 0.1 µM |  | CC(C)S(=O)(=O)c1ccc(-c2cnc3[nH]cc(NC(=O)c4cccc(C5CNCCN5)c4)c3n2)cc1 (stereo not drawn) [Compound I-21, N-[2-(4-isopropylsulfonylphenyl)-5H-pyrrolo[2,3-b]pyrazin-7-yl]-3-piperazin-2-yl-benzamide]
≤ 0.01 µM |  | CC(C)S(=O)(=O)c1ccc(-c2cnc3[nH]cc(NC(=O)c4ccc(N5CC[C@H](N)C5)cc4)c3n2)cc1 [Compound I-22, 4-[(3S)-3-aminopyrrolidin-1-yl]-N-[2-(4-isopropylsulfonylphenyl)-5H-pyrrolo[2,3-b]pyrazin-7-yl]benzamide]
≤ 0.01 µM |  | CC(C)S(=O)(=O)c1ccc(-c2cnc3[nH]cc(NC(=O)c4ccc(N5CCC[C@@H](N)C5)cc4)c3n2)cc1 [Compound I-23, 4-[(3R)-3-amino-1-piperidyl]-N-[2-(4-isopropylsulfonylphenyl)-5H-pyrrolo[2,3-b]pyrazin-7-yl]benzamide]
≤ 0.01 µM |  | CC(C)S(=O)(=O)c1ccc(-c2cnc3[nH]cc(NC(=O)c4ccc5c(c4)CNC5)c3n2)cc1 [Compound I-24, N-[2-(4-isopropylsulfonylphenyl)-5H-pyrrolo[2,3-b]pyrazin-7-yl]isoindoline-5-carboxamide]
≤ 0.01 µM |  | CC(C)S(=O)(=O)c1ccc(-c2cnc3[nH]cc(NC(=O)c4ccc5c(c4)CNCC5)c3n2)cc1 [Compound I-25, N-[2-(4-isopropylsulfonylphenyl)-5H-pyrrolo[2,3-b]pyrazin-7-yl]-1,2,3,4-tetrahydroisoquinoline-7-carboxamide]
≤ 0.01 µM |  | CC(C)S(=O)(=O)c1ccc(-c2cnc3[nH]cc(NC(=O)c4cc5c(s4)CCNC5)c3n2)cc1 [Compound I-26, N-[2-(4-isopropylsulfonylphenyl)-5H-pyrrolo[2,3-b]pyrazin-7-yl]-4,5,6,7-tetrahydrothieno[3,2-c]pyridine-2-carboxamide]
≤ 0.01 µM |  | CC(C)S(=O)(=O)c1ccc(-c2cnc3[nH]cc(NC(=O)c4cc5c(s4)CNCC5)c3n2)cc1 [Compound I-27, N-[2-(4-isopropylsulfonylphenyl)-5H-pyrrolo[2,3-b]pyrazin-7-yl]-4,5,6,7-tetrahydrothieno[2,3-c]pyridine-2-carboxamide]
≤ 0.01 µM |  | CC(C)S(=O)(=O)c1ccc(-c2cnc3[nH]cc(NC(=O)c4ccc(C5CCCN5)cc4)c3n2)cc1 (stereo not drawn) [Compound I-28, N-[2-(4-isopropylsulfonylphenyl)-5H-pyrrolo[2,3-b]pyrazin-7-yl]-4-pyrrolidin-2-yl-benzamide]
≤ 0.01 µM |  | CC(C)S(=O)(=O)c1ccc(-c2cnc3[nH]cc(NC(=O)c4ccc(OCCN(C)C)cc4)c3n2)cc1 [Compound I-29, 4-(2-dimethylaminoethyloxy)-N-[2-(4-isopropylsulfonylphenyl)-5H-pyrrolo[2,3-b]pyrazin-7-yl]benzamide]
≤ 0.01 µM |  | CC(C)S(=O)(=O)c1ccc(-c2cnc3[nH]cc(NC(=O)c4ccc(NC5CNC5)cc4)c3n2)cc1 [Compound I-30, 4-(azetidin-3-ylamino)-N-[2-(4-isopropylsulfonylphenyl)-5H-pyrrolo[2,3-b]pyrazin-7-yl]benzamide]
0.01 to 0.1 µM |  | COc1cccc(C(=O)Nc2c[nH]c3ncc(-c4ccc(S(=O)(=O)C(C)C)cc4)nc23)n1 [Compound I-31, N-[2-(4-isopropylsulfonylphenyl)-5H-pyrrolo[2,3-b]pyrazin-7-yl]-6-methoxy-pyridine-2-carboxamide]
≤ 0.01 µM |  | Cc1ccsc1C(=O)Nc1c[nH]c2ncc(-c3ccc(S(=O)(=O)C(C)C)cc3)nc12 [Compound I-32, N-[2-(4-isopropylsulfonylphenyl)-5H-pyrrolo[2,3-b]pyrazin-7-yl]-3-methyl-thiophene-2-carboxamide]
0.01 to 0.1 µM |  | CC(C)S(=O)(=O)c1ccc(-c2cnc3[nH]cc(NC(=O)CC4CC4)c3n2)cc1 [Compound I-33, 2-cyclopropyl-N-[2-(4-isopropylsulfonylphenyl)-5H-pyrrolo[2,3-b]pyrazin-7-yl]acetamide]

From US8822469B2, “Pyrrolo[2,3-B]pyrazines useful as inhibitors of ATR kinase” (Vertex Pharmaceuticals Incorporated, priority 2011, dated 2014)
